# Reference: ChEMBL document CHEMBL2016494, “Ligand-based design of a potent and selective inhibitor of cytochrome P450 2C19” (J Med Chem, 2012)
# pIC50: −log10 of the molar value.
# Tests used:
# [1] = Apparent intrinsic clearance in human liver microsomes by LC-MS/MS analysis
# [2] = target: T1, Cytochrome P450 1A2 (Homo sapiens, UniProt P05177); test: Inhibition of CYP1A2 in human liver microsomes using phenacetin preincubated for 5 mins by LC-MS/MS analysis
# T1 sequence (P05177 whole entry): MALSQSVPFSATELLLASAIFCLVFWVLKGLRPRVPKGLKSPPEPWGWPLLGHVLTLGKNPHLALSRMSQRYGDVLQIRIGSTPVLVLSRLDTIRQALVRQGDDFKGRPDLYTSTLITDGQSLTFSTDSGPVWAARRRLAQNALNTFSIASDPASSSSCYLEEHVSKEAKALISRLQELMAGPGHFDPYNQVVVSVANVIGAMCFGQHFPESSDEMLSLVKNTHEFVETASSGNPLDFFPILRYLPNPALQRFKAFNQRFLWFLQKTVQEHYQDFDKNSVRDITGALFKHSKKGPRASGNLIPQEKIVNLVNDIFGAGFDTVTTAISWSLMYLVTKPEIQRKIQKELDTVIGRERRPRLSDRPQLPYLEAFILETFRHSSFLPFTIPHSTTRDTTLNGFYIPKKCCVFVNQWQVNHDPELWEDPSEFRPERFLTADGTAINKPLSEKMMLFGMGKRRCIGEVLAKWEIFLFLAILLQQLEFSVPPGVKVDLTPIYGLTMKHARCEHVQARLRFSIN
# [3] = target: T2, Cytochrome P450 2C8 (Homo sapiens, UniProt P10632); test: Inhibition of CYP2C8 in human liver microsomes using paclitaxel as substrate preincubated for 5 mins by LC-MS/MS analysis
# T2 sequence (P10632 whole entry): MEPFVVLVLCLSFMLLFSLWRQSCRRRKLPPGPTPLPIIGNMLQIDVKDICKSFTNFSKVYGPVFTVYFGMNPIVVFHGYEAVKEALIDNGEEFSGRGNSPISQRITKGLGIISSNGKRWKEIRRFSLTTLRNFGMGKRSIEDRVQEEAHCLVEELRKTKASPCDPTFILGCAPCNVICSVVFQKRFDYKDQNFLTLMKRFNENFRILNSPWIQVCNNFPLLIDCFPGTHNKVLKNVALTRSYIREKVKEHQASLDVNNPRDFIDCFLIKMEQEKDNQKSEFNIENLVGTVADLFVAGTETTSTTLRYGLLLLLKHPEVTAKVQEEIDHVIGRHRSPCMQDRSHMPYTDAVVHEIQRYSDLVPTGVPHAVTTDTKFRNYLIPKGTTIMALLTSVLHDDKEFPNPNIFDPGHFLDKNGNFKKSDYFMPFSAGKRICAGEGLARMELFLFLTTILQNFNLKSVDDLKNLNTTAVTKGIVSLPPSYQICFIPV
# [4] = Half life in human liver microsomes by LC-MS/MS analysis
# [5] = target: Cytochrome P450 2D6 (Homo sapiens, UniProt P10635); test: Inhibition of CYP2D6 in human liver microsomes using dextromethorphan as substrate preincubated for 5 mins by LC-MS/MS analysis
# [6] = target: T3, Cytochrome P450 2B6 (Homo sapiens, UniProt P20813); test: Inhibition of CYP2B6 in human liver microsomes using bupropion as substrate preincubated for 5 mins by LC-MS/MS analysis
# T3 sequence (P20813 whole entry): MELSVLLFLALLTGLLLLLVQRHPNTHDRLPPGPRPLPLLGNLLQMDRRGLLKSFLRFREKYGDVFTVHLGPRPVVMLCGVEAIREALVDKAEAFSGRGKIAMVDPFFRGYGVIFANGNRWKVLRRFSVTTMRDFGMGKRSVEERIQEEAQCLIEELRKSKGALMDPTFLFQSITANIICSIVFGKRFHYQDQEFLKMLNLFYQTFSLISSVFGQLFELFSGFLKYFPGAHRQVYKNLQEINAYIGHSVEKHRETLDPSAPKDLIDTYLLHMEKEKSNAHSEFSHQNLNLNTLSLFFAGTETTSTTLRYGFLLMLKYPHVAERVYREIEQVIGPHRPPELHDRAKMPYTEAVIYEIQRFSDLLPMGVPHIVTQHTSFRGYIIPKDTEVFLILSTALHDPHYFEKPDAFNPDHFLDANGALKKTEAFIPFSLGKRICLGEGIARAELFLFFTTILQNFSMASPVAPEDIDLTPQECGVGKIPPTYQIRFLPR
# [7] = target: Cytochrome P450 2E1 (Homo sapiens, UniProt P05181); test: Inhibition of CYP2E1 in human liver microsomes using chlorzoxazone as substrate preincubated for 5 mins by LC-MS/MS analysis
# Chain of Cytochrome P450 2E1 (P05181 whole entry): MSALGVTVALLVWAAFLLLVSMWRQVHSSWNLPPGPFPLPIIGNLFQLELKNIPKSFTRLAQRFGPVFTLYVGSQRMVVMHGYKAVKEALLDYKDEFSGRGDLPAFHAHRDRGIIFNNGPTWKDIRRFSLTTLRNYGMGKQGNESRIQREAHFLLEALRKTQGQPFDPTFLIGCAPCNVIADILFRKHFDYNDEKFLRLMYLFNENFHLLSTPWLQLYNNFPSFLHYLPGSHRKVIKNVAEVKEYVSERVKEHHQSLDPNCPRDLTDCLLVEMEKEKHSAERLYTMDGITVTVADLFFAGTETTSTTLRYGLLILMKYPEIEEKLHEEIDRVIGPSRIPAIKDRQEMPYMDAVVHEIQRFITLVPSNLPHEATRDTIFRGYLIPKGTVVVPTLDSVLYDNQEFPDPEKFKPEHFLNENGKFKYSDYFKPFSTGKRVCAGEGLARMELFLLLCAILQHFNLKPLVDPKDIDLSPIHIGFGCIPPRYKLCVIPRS
# Chain of Cytochrome P450 2D6 (P10635 whole entry): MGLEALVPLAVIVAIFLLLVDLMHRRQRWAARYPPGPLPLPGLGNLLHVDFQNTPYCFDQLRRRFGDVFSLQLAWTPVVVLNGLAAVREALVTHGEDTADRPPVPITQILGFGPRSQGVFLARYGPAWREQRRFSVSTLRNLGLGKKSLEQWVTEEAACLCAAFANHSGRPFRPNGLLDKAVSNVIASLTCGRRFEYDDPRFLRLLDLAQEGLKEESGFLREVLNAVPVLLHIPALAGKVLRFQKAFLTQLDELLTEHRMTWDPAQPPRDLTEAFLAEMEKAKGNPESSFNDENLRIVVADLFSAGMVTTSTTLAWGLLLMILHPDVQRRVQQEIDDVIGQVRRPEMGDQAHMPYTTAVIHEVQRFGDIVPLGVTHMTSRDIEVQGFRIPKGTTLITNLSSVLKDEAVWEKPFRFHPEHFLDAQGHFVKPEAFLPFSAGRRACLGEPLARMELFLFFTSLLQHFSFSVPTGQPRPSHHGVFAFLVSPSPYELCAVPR
structure (smiles),measurement,setting,value
CCCSc1nc2ccc(OC)cc2[nH]1,microsomal CLint,[1]; microsomes,724 µL/min/mg
same,pIC50,[2],6.03
same,pIC50,[3],5.51
same,half-life,[4]; microsomes,0.16 h
same,pIC50,[5],5.71
COc1ccc2[nH]c(SCCCC(=O)O)nc2c1,microsomal CLint,[1]; liver microsomes,< 57.8 µL/min/mg
same,half-life,[4]; liver microsomes,2 h
same,pIC50,[6],4.54
COc1ccc2[nH]c(SCc3ccccc3)nc2c1,pIC50,[7],< 4.30
same,microsomal CLint,[1]; microsomes,< 57.8 µL/min/mg
same,pIC50,[3],< 4.30
same,half-life,[4]; microsomes,2 h
same,pIC50,[6],< 4.30
COc1ccc2nc(SCc3ccc(C(=O)O)cc3)[nH]c2c1,microsomal CLint,[1]; liver microsomes,860 µL/min/mg
same,half-life,[4]; liver microsomes,0.134 h
